Measured values from patent US11964962B2, “Substituted pyridazinone compound and use thereof” (SHANDONG FIRST MEDICAL UNIVERSITY & SHANDONG ACADEMY OF …, priority 2020, dated 2024).
pEC50, pIC50: −log10 of the molar value.

Tests used:
THRα = molecular target: T1, THRα (Homo sapiens, UniProt P10827); experiment: THRα agonist activity, fluorescence ratio 665 nm/615 nm with EE-RxRα and biotin-GRIP; type: biochemical; settings: incubated overnight at 4° C.
T1 construct: GST
T1 sequence (P10827 1-410 isoform P10827-2): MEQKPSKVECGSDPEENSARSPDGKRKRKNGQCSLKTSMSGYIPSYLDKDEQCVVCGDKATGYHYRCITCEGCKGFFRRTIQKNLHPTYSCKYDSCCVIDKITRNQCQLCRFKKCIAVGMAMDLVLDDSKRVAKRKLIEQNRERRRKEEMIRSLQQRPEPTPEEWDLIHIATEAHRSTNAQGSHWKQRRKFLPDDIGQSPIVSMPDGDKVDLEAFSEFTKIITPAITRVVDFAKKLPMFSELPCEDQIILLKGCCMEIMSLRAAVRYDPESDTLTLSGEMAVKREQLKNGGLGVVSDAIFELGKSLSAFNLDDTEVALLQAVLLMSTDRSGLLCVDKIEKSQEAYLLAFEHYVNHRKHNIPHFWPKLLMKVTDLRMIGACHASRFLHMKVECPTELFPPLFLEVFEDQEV
T1 sequence (P19793 225-462 partner limits assumed): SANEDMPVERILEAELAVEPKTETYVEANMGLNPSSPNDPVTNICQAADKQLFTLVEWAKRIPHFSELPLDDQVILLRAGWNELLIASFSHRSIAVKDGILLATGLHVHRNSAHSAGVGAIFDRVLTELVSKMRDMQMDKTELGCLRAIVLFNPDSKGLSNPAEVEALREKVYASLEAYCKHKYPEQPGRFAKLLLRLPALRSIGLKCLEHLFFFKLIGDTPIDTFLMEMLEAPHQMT
T1 sequence (Q15596 679-703 partner limits assumed): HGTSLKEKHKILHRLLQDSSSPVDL
Procedure: (§1) Test compound was dissolved and serially diluted in dimethyl sulfoxide (DMSO) with a final compound concentration of 60 mM. […] Buffer 1 was employed again to prepare EE-RxRα at the same concentrations as those of THRα and THRβ, respectively. Buffer 1+5% DMSO was employed to prepare biotin-GRIP (THRα: […], THRβ: 100 nM). Buffer 2 (50 mM Tris, pH 7.4, 100 mM NaCl, and 0.2 mg/mL BSA) was employed to prepare a mixed solution of 2×Eu-anti-GST and 2×streptavidin-d2. 5 μL of the THRα (THRβ) solution+5 μL of EE-RxRα+2.5 μL of the DMSO solution of test compound+2.5 μL of biotin-GRIP+5 μL of the mixed solution of 2×Eu-anti-GST and 2×streptavidin-d2 was employed as the reaction system, and incubated overnight at 4° C.

THRβ = molecular target: T2, THRβ (Homo sapiens, UniProt P10828); experiment: THRβ agonist activity, fluorescence ratio 665 nm/615 nm with EE-RxRα and biotin-GRIP; type: biochemical; settings: incubated overnight at 4° C.
T2 construct: GST
T2 sequence (P10828 1-461): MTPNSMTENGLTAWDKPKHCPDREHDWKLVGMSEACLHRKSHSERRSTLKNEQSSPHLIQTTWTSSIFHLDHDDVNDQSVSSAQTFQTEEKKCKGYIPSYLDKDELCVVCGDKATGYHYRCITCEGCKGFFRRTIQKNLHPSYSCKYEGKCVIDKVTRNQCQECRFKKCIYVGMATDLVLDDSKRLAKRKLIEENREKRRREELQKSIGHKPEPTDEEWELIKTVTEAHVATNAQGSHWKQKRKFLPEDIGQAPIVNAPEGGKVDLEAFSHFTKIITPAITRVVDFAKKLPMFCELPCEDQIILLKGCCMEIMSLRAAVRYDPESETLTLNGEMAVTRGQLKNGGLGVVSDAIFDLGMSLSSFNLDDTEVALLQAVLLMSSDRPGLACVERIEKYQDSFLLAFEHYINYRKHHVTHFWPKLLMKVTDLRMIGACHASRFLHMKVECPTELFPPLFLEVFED
T2 sequence (P19793 225-462 partner limits assumed): T1 sequence (P19793 225-462 partner limits assumed)
T2 sequence (Q15596 679-703 partner limits assumed): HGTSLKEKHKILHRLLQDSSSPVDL
Procedure: as §1

L929 mouse fibroblasts = experiment: Cytotoxicity in normal cell line L929 (CCK-8 proliferation assay); type: cell-based; settings: 48 h treatment, CCK-8, absorbance 450 nm, read-out: IC50 for proliferation of L929 cell lines
Procedure: Concentration of L929 mouse fibroblasts was adjusted to 4×10^5 cells/mL. The cells were seeded in a 96 well plate with […] per well. Wells not supplied with the cells (blank group) were provided. The cells were cultivated on the plate and were allowed to adhere overnight. Then, cell culture supernatants were collected, and 200 μL of test compound at various concentrations were added to the corresponding cell culture supernatants. Control and compound-treated cell culture supernatants were included in each experiment with triplicate wells for each experimental group, and were cultivated for a further 48 h. Then, the resulting cell culture supernatants were again collected, and fresh medium supplemented with 10% CCK-8 solution was added thereto. Incubation for an additional 3 h was carried out. Thereafter, the absorbance of the medium was measured at 450 nm wavelength, and the inhibitory rate of cell proliferation by test compound was calculated according to the equation below: R (%)=1−(Aexperiment−Ablank)/(Acontrol−Ablank)

[1] = Metabolic stability in human liver microsomes; type: in vitro ADME; settings: pH 7.4, 37° C.; for half-life: read-out: T ½
Procedure: Microsomal incubations were performed in 0.05 M Tris-KCl buffer (pH 7.4) in the presence of test compound dissolved in DMSO at a series of concentrations, rat liver microsomes (RLMs) (S9 or human liver microsomes (HLMs)), rat liver cytoplasms (RLCs) (human liver cytoplasms (HLCs, 0.5 mg/mL)), 1.3 mM β-nicotinamide adenine dinucleotide phosphate sodium salt (NADP), 3.3 mM D-glucose-6-phosphate disodium salt (G-6-P), 0.4 units/mL glucose-6-phosphate dehydrogenase (G-6-PDH, type XII), and 3.3 mM MgCl2. The volume of the organic solvents was not more than 1% by volume with respect to the reaction system. After a preincubation of the mixture in a rotating mixer at 37° C. and 850 rpm for 3 min, hepatic microsomes were added to initiate incubation reactions, which were conducted at 37° C. for 30 min, 60 min, or 90 min, respectively. After the incubations were complete, the reactions were terminated by addition of an equal volume of ice cold acetonitrile, followed by addition of 20 μL of a 1 mg/mL solution of geniposide (internal standard) in methanol and then by centrifugation at 10,000 rpm for 10 min to precipitate protein. The […] was blown dry with nitrogen at 40° C. and then dissolved in 100 μL of methanol, which was used as mobile phase. 10 μL of the solution was sampled and analyzed by HPLC.

Row | Compound | pEC50 (THRα) | pEC50 (THRβ) | pIC50 (L929 mouse fibroblasts) | microsomal CLint [1] [µL/min/mg] | half-life [1] [h]
1 | Cc1c(Oc2ccc(-n3nc(C#N)c(=O)[nH]c3=O)cc2Cl)n[nH]c(=O)c1C [Compound 24] | 5.48 | 8.00 | < 4.30 | 0.452 | 14.5
2 | CC(C)c1cc(Oc2c(Cl)cc(-n3nc(C#N)c(=O)[nH]c3=O)cc2Cl)n[nH]c1=O [MGL-3196, Resmetirom, reference compound] |  |  |  | 2.21 | < 6.67
3 | N#Cc1nn(-c2ccc(Oc3cc(CC4CCCC4)c(=O)[nH]n3)c(F)c2)c(=O)[nH]c1=O [Compound 7] | 5.00 | 7.89 | < 4.30 | 0.12 | 18.3
4 | N#Cc1nn(-c2cc(Cl)c(Oc3cc(CC4CCCC4)c(=O)[nH]n3)c(Cl)c2)c(=O)[nH]c1=O [Compound 6] | 5.56 | 7.02 | < 4.30 | 0.18 | 16.3
5 | CC(C)c1cc(Oc2c(Cl)cc(-c3c[nH]c(=O)c(O)c3)cc2Cl)n[nH]c1=O [Compound 47, 6-(2,6-dichloro-4-(5-hydroxy-6-oxo-1,6-dihydropyridin-3-yl)phenoxy)-4-isopropylpyridazin-3(2H)-one] | 4.76 | 5.78 | < 4.30 |  | 
6 | CC(C)(C)Cc1cc(Oc2c(Cl)cc(-n3cc(C#N)c(=O)[nH]c3=O)cc2Cl)n[nH]c1=O [Compound 43] | 5.18 | 7.39 | < 4.30 |  | 
7 | COc1cc(-n2nc(C#N)c(=O)[nH]c2=O)ccc1Oc1cc(CC2CCCC2)c(=O)[nH]n1 [Compound 12] | 5.06 | 6.14 | < 4.30 |  | 
8 | N#Cc1nn(-c2ccc(Oc3cc(C4CCCC4)c(=O)[nH]n3)c(F)c2)c(=O)[nH]c1=O [Compound 32] | 4.73 | 6.55 | < 4.30 |  | 
9 | CC(C)Cc1cc(Oc2c(Cl)cc(-n3nc(C#N)c(=O)[nH]c3=O)cc2Cl)n[nH]c1=O [Compound 14] | 5.47 | 7.60 | < 4.30 |  | 
10 | N#Cc1nn(-c2ccc(Oc3n[nH]c(=O)cc3C3CC3)c(Cl)c2)c(=O)[nH]c1=O [Compound 37] | 9.00 | 5.49 | < 4.30 |  | 
11 | N#Cc1nn(-c2ccc(Oc3cc(CC4CCCC4)c(=O)[nH]n3)c(Br)c2)c(=O)[nH]c1=O [Compound 9] | 5.32 | 6.19 | < 4.30 |  | 
12 | CC(C)c1cc(=O)[nH]nc1Oc1ccc(-n2nc(C#N)c(=O)[nH]c2=O)c(Cl)c1 [Compound 36] | 4.86 | 5.38 | < 4.30 |  | 
13 | N#Cc1nn(-c2ccc(Oc3cc(CC4CCCC4)c(=O)[nH]n3)c(Cl)c2)c(=O)[nH]c1=O [Compound 8] | 5.21 | 7.49 | < 4.30 |  | 
14 | CC(C)c1cc(Oc2c(Br)cc(-n3nc(C#N)c(=O)[nH]c3=O)cc2Br)n[nH]c1=O [Compound 28] | 7.42 | 6.99 | < 4.30 |  | 
